From patent publication US20110229450A1, “ENZYMES AND METHODS FOR DEGRADING S-TRIAZINES AND DIAZINES” (Commonwealth Scientific and industrial Research Organisation, priority 2008, published 2011)
Where two headings read alike, the source gives them in different places.

Key:
TrzN = details: from Shapir et al. (2006); ametryn = 1; cited from earlier work
TrzN cc3.2 = experiment: Substrate range: hydrolysis of triazines by purified TrzN cc3.2 (loss of absorbance at 264 nm); format: biochemical; details: for Hydrolysis by TrzN cc3.2: purified enzyme; for Relative Activity in TrzN cc3.2: specific activity at 100 μM substrate and 41 nM TrzN cc3.2, ametryn = 1
Apo-TrzNcc3.2 = experiment: Saturation of Apo-TrzNcc3.2 with Zn^2+; format: binding
[1] = read-out: Kd for zinc; cited from earlier work
[2] = format: cell-based, E. coli strain BL21 λDE3; details: for Time to clear: 1% atrazine (w/v), 1 mM IPTG LB agar plates, 37° C., BL21 λDE3 pETcc2; for atrazine dechlorinase activity / clearing rate after substitution, compared with wild-type or parental gene: site-saturation and random mutagenesis
[3] = from 5 litres; Shapir et al. (2005); cited from earlier work
[4] = read-out: Km for atrazine; cited from earlier work
[5] = Atrazine clearing plate assay, low-level constitutive vector pCS150 in three E. coli strains; format: cell-based; details: E. coli JM109, DH10β and BL21 λDE3, 37° C.
Method: Random and site-saturated libraries were screened using LB agar plates supplemented with 200 μg.mL^−1 ampicillin, 1 μM IPTG and impregnated with 1 mg.mL^−1 atrazine (90% atrazine w/w; Gesaprim 900 WG, Syngenta). […] The level of activity was determined by the rate at which the clarification occurred.
The entire coding region for both TrzNcc3.2 and wild-type TrzN were moved from the inducible, high-level expression vector pETcc2 into a low-level, constitutive expression vector (pCS150, Scott et al., 2009). The resultant vectors were used to transform E. coli JM109, DH10β, and BL21 λDE3 cells. The six resultant strains were tested for their rates of clearing using the atrazine clearing plate assay.

| Molecule | Hydrolysis by TrzN cc3.2 (TrzN cc3.2) | Relative Activity in TrzN cc3.2 (TrzN cc3.2) | further results |
| --- | --- | --- | --- |
| CCNc1nc(NC(C)C)nc(SC)n1 [Ametryn, N2-ethyl-N4-isopropyl-6-methylthio-1,3,5-triazine-2,4-diamine] | able to hydrolyse | 1 | Relative Activity in TrzN* (TrzN): 1 |
| CCNc1nc(Cl)nc(NC(C)C)n1 [Atrazine, 6-chloro-N-ethyl-N′-(1-methylethyl)-1,3,5-triazine-2,4-diamine] | able to hydrolyse | 1.36 | Relative Activity in TrzN* (TrzN): 0.16 |
| CCNc1nc(Cl)nc(NC(C)(C)C#N)n1 [Cyanozine, 2-[[4-chloro-6-(ethyamino)-1,3,5-triazin-2-yl]amino]-2-methylpropanenitrile] | able to hydrolyse | 0.43 | – |
| CCN(CC)c1nc(Cl)nc(NC(C)C)n1 [Ipazine, 6-chloro-N,N-diethyl-N′-(1-methylethyl)-1,3,5-triazine-2,4-diamine] | able to hydrolyse | 0.07 | – |
| CSc1nc(NC(C)C)nc(NC(C)C)n1 [Prometryn, N2,N4-diisopropyl-6-methylthio-1,3,5-triazine-2,4-diamine] | able to hydrolyse | 1 | – |
| CC(C)Nc1nc(Cl)nc(NC(C)C)n1 [Propazine, 6-chloro-N,N′-bis(1-methylethyl)-1,3,5-triazine-2,4-diamine] | able to hydrolyse | 0.86 | – |
| CCNc1nc(Cl)nc(NCC)n1 [Simazine, 6-chloro-N,N″-diethyl-1,3,5-triazine-2,4-diamine] | able to hydrolyse | 1.36 | Relative Activity in TrzN* (TrzN): 0.41 |
| CCNc1nc(NCC)nc(SC)n1 [Simetryn, N2,N4-diethyl-6-methylthio-1,3,5-triazine-2,4-diamine] | able to hydrolyse | 0.57 | Relative Activity in TrzN* (TrzN): 0.14 |
| CCNc1nc(Cl)nc(N(CC)CC)n1 [Trietazine, 6-chloro-N,N,N′-triethyl-1,3,5-triazine-2,4-diamine] | able to hydrolyse | 0.04 | – |
| [Zn+2] [Zn^2+] | – | – | EC50 (Apo-TrzNcc3.2; read-out: ZnCl2 concentration at which half maximal activity was recovered): 2600 nM; Kd (Apo-TrzNcc3.2; read-out: dissociation constant for Zn^2+): 2600 nM |
| superoxide dismutase | – | – | Kd [1]: 0.01 nM |
| TrzN Wildtype: Wild-type TrzN triazine hydrolase, SEQ ID NO:1; codon optimised open reading frame TrzNco, SEQ ID NO:2 (protein, listed as Arthrobacter aurescens) MILIRGLTRVITFDDQERELEDADILIDGPKIVAVGKDLSDRSVSRTIDGRGMIALPGLINSHQHLYEGAMRAIPQLERVTMASWLEGVLTRSAGWWRDGKFGPDVIREVARAVLLESLLGGITTVADQHLFFPGATADSYIDATIEAATDLGIRFHAARSSMTLGKSEGGFCDDLFVEPVDRVVQHCLGLIDQYHEPEPFGMVRIALGPCGVPYDKPELFEAFAQMAADYDVRLHTHFYEPLDAGMSDHLYGMTPWRFLEKHGWASDRVWLAHAVVPPREEIPEFADAGVAIAHLIAPDLRLGWGLAPIREYLDAGITVGFGTTGSASNDGGNLLGDLRLAALAHRPADPNEPEKWLSARELLRMATRGSAECLGRPDLGVLEEGRAADIACWRLDGVDRVGVHDPAIGLIMTGLSDRASLVVVNGQVLVENERPVLADLERIVANTTALIPKNL | – | – | Time to clear [2]: None; Time to clear ([2]; listed as trzNco): > 30 days; yield of partial purification [3]: 2.8 mg; Km [4]: 20 µM; Time to clear [5]: > 12 days |
| S161G (protein) MILIRGLTRVITFDDQERELEDADILIDGPKIVAVGKDLSDRSVSRTIDGRGMIALPGLINSHQHLYEGAMRAIPQLERVTMASWLEGVLTRSAGWWRDGKFGPDVIREVARAVLLESLLGGITTVADQHLFFPGATADSYIDATIEAATDLGIRFHAARGSMTLGKSEGGFCDDLFVEPVDRVVQHCLGLIDQYHEPEPFGMVRIALGPCGVPYDKPELFEAFAQMAADYDVRLHTHFYEPLDAGMSDHLYGMTPWRFLEKHGWASDRVWLAHAVVPPREEIPEFADAGVAIAHLIAPDLRLGWGLAPIREYLDAGITVGFGTTGSASNDGGNLLGDLRLAALAHRPADPNEPEKWLSARELLRMATRGSAECLGRPDLGVLEEGRAADIACWRLDGVDRVGVHDPAIGLIMTGLSDRASLVVVNGQVLVENERPVLADLERIVANTTALIPKNL | – | – | atrazine dechlorinase activity / clearing rate after substitution, compared with wild-type or parental gene [2]: improved activities |
| D38N (protein) MILIRGLTRVITFDDQERELEDADILIDGPKIVAVGKNLSDRSVSRTIDGRGMIALPGLINSHQHLYEGAMRAIPQLERVTMASWLEGVLTRSAGWWRDGKFGPDVIREVARAVLLESLLGGITTVADQHLFFPGATADSYIDATIEAATDLGIRFHAARSSMTLGKSEGGFCDDLFVEPVDRVVQHCLGLIDQYHEPEPFGMVRIALGPCGVPYDKPELFEAFAQMAADYDVRLHTHFYEPLDAGMSDHLYGMTPWRFLEKHGWASDRVWLAHAVVPPREEIPEFADAGVAIAHLIAPDLRLGWGLAPIREYLDAGITVGFGTTGSASNDGGNLLGDLRLAALAHRPADPNEPEKWLSARELLRMATRGSAECLGRPDLGVLEEGRAADIACWRLDGVDRVGVHDPAIGLIMTGLSDRASLVVVNGQVLVENERPVLADLERIVANTTALIPKNL | – | – | clearing phenotype ([2]; D38X site saturation library in a L131P A159V background): apparently improved clearing phenotypes |
| T91S (protein) MILIRGLTRVITFDDQERELEDADILIDGPKIVAVGKDLSDRSVSRTIDGRGMIALPGLINSHQHLYEGAMRAIPQLERVTMASWLEGVLSRSAGWWRDGKFGPDVIREVARAVLLESLLGGITTVADQHLFFPGATADSYIDATIEAATDLGIRFHAARSSMTLGKSEGGFCDDLFVEPVDRVVQHCLGLIDQYHEPEPFGMVRIALGPCGVPYDKPELFEAFAQMAADYDVRLHTHFYEPLDAGMSDHLYGMTPWRFLEKHGWASDRVWLAHAVVPPREEIPEFADAGVAIAHLIAPDLRLGWGLAPIREYLDAGITVGFGTTGSASNDGGNLLGDLRLAALAHRPADPNEPEKWLSARELLRMATRGSAECLGRPDLGVLEEGRAADIACWRLDGVDRVGVHDPAIGLIMTGLSDRASLVVVNGQVLVENERPVLADLERIVANTTALIPKNL | – | – | atrazine dechlorinase activity / clearing rate after substitution, compared with wild-type or parental gene [2]: improved activities |
| P210A (protein) MILIRGLTRVITFDDQERELEDADILIDGPKIVAVGKDLSDRSVSRTIDGRGMIALPGLINSHQHLYEGAMRAIPQLERVTMASWLEGVLTRSAGWWRDGKFGPDVIREVARAVLLESLLGGITTVADQHLFFPGATADSYIDATIEAATDLGIRFHAARSSMTLGKSEGGFCDDLFVEPVDRVVQHCLGLIDQYHEPEPFGMVRIALGACGVPYDKPELFEAFAQMAADYDVRLHTHFYEPLDAGMSDHLYGMTPWRFLEKHGWASDRVWLAHAVVPPREEIPEFADAGVAIAHLIAPDLRLGWGLAPIREYLDAGITVGFGTTGSASNDGGNLLGDLRLAALAHRPADPNEPEKWLSARELLRMATRGSAECLGRPDLGVLEEGRAADIACWRLDGVDRVGVHDPAIGLIMTGLSDRASLVVVNGQVLVENERPVLADLERIVANTTALIPKNL | – | – | atrazine dechlorinase activity / clearing rate after substitution, compared with wild-type or parental gene [2]: improved activities |
| L335M (protein) MILIRGLTRVITFDDQERELEDADILIDGPKIVAVGKDLSDRSVSRTIDGRGMIALPGLINSHQHLYEGAMRAIPQLERVTMASWLEGVLTRSAGWWRDGKFGPDVIREVARAVLLESLLGGITTVADQHLFFPGATADSYIDATIEAATDLGIRFHAARSSMTLGKSEGGFCDDLFVEPVDRVVQHCLGLIDQYHEPEPFGMVRIALGPCGVPYDKPELFEAFAQMAADYDVRLHTHFYEPLDAGMSDHLYGMTPWRFLEKHGWASDRVWLAHAVVPPREEIPEFADAGVAIAHLIAPDLRLGWGLAPIREYLDAGITVGFGTTGSASNDGGNMLGDLRLAALAHRPADPNEPEKWLSARELLRMATRGSAECLGRPDLGVLEEGRAADIACWRLDGVDRVGVHDPAIGLIMTGLSDRASLVVVNGQVLVENERPVLADLERIVANTTALIPKNL | – | – | atrazine dechlorinase activity / clearing rate after substitution, compared with wild-type or parental gene [2]: improved activities |
